Each structure is given as a SMILES string. A value given as a limit tells only on which side of the number the result lay.

In one experiment the test system is HCV replicon. Briefly: Replicon based assay of HCV replication inhibition (NPT ELISA). In kind it is cell-based, Hepatitis C virus. The settings on record: Hepatitis C virus, Huh-7, 72 h, Table I; Huh-7 HCV replicon-containing cells, three days; read-out: Activity. The procedure, abridged: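 NPT (neomycin phosphotransferase) content, proportional to replicon replication, quantified by capture ELISA on day four. Before that, replicon-bearing Huh-7 cells in G418-free screening medium were exposed three days at 37° C to compound, typically six doses from 10 to 0.03 micromolar, with equal DMSO across wells.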
Background: Replicon systems follow genome replication, usually without infectious particles.
For the molecule `CCCCCc1ccc(Nc2nc(-c3ccc(Cl)cc3)cs2)cc1` [compound 20, 4-(4-chlorophenyl)-N-(4-pentylphenyl)thiazol-2-amine], the EC50 was less than 1000 nM.
For the molecule `c1cncc(-c2csc(Nc3ccc(-c4csnn4)cc3)n2)c1` [compound 102, N-(4-(1,2,3-thiadiazol-4-yl)phenyl)-4-(pyridin-3-yl)thiazol-2-amine], the EC50 is greater than 10000 nM.
Regarding `Clc1ccc(Nc2nc(-c3ccc(Cl)c(Cl)c3)cs2)cc1Cl` [compound 48, N,4-bis(3,4-dichlorophenyl)thiazol-2-amine], the EC50 is less than 1000 nM.
In the case of `Fc1ccc(-c2csc(Nc3nc(-c4ccc(Cl)cc4)cs3)n2)cc1` [compound 145, 4-(4-chlorophenyl)-N-(4-(4-fluorophenyl)thiazol-2-yl)thiazol-2-amine], the EC50 is greater than 10000 nM.
`CCCCCOc1ccc(Nc2nc(-c3ccc(F)cc3)cs2)cn1` [compound 63, N-(4-(4-fluorophenyl)thiazol-2-yl)-6-(pentyloxy)pyridin-3-amine]: the EC50 was less than 1000 nM.
In the case of `N#Cc1ccc(Nc2nc(-c3ccc(F)cc3)cs2)cc1` [compound 51, 4-(4-(4-fluorophenyl)thiazol-2-ylamino)benzonitrile], the EC50 is greater than 10000 nM.

The experiment is the same for the next values; noted with them: Hepatitis C virus, Huh-7, 72 h, Table III; Huh-7 HCV replicon-containing cells, three days; read-out: Activity.
Consider `CCCCCCCCOc1ccc(Nc2nc(-c3ncccc3O)cs2)cc1C(F)(F)F` [compound 710, 2-(2-(3-(trifluoromethyl)-4-(octyloxy)phenylamino)thiazol-4-yl)pyridin-3-ol], for which the EC50 is less than 1000 nM.
In the case of `CCCCCCCCOc1ccc(Nc2nccs2)cc1` [compound 623, N-(4-(octyloxy)phenyl)thiazol-2-amine], the EC50 was less than 1000 nM.
On the same count and under the same terms, next, `CN(C)CCCOc1ccc(Nc2nc(-c3cccnc3)cs2)cc1C(F)(F)F` [compound 695, N-(4-(3-(dimethylamino)propoxy)-3-(trifluoromethyl)phenyl)-4-(pyridin-3-yl)thiazol-2-amine]: 1000 to 10000 nM; `CCCCCCCCOc1ccc(Nc2nc(-c3ccc(F)cc3)cs2)cc1C(F)(F)F` [compound 580, N-(3-(trifluoromethyl)-4-(octyloxy)phenyl)-4-(4-fluorophenyl)thiazol-2-amine]: less than 1000 nM.
Consider `CC(C)CCCC(C)CCOc1ccc(Nc2nc(-c3cccnc3)cs2)cc1C(F)(F)F` (centres unmarked) [compound 691, N-(4-(3,7-dimethyloctyloxy)-3-(trifluoromethyl)phenyl)-4-(pyridin-3-yl)thiazol-2-amine], for which the EC50 was less than 1000 nM.
Same read-out and setting: the figure for `CCCCCCCCOc1ccc(Nc2nc(-c3cnc(Cl)c(C(=O)OC)c3)cs2)cc1C(F)(F)F` [compound 672, methyl 5-(2-(3-(trifluoromethyl)-4-(octyloxy)phenylamino)thiazol-4-yl)-2-chloropyridine-3-carboxylate] is less than 1000 nM; for `CCCCCCCCOc1ccc(Nc2nc(-c3cncc(C(N)=O)c3)cs2)cc1` [compound 653, 5-(2-(4-(octyloxy)phenylamino)thiazol 4-yl)pyridine-3-carboxamide] it is less than 1000 nM; for `CCCCCCCCOc1ccc(Nc2nc(-c3cnccn3)cs2)cc1` [compound 598, N-(4-(octyloxy)phenyl)-4-(pyrazin-2-yl)thiazol-2-amine] it is less than 1000 nM.
On to `CCCCCCCCN(C)c1ccc(Nc2nc(-c3ccc(Cl)s3)cs2)cc1C(F)(F)F` [compound 570, N^4-(4-(5-chlorothiophen-2-yl)thiazol-2-yl)-2-(trifluoromethyl)-N^1-methyl-N^1-octylbenzene-1,4-diamine], for which the EC50 is less than 1000 nM.
Consider `CCCCCOc1ccc(Nc2nc(Cc3ccc(OC)cc3)cs2)cc1C(F)(F)F` [compound 639, 4-(4-methoxybenzyl)-N-(3-(trifluoromethyl)-4-(pentyloxy)phenyl)thiazol-2-amine], for which the EC50 was 1000 to 10000 nM.
In the case of `CCCCCCCCc1ccc(Nc2nc(-c3ccccn3)cs2)cc1` [compound 551, N-(4-octylphenyl)-4-(pyridin-2-yl)thiazol-2-amine], the EC50 is less than 1000 nM.
As to `CCCCCCCCN(C)c1ccc(Nc2nc(-c3cc4ccccc4o3)cs2)cc1C(F)(F)F` [compound 577, N^4-(4-(benzofuran-2-yl)thiazol-2-yl)-2-(trifluoromethyl)-N^1-methyl-N^1-octylbenzene-1,4-diamine], the EC50 was in the range of 1000 to 10000 nM.

The same experiment, now with this note: Hepatitis C virus, replicon based assay of HCV replication inhibition; Table II; read-out: Activity.
With `COc1ccc(Cl)cc1Nc1nc(-c2cccnc2)cs1` [compound 428, N-(5-chloro-2-methoxyphenyl)-4-(pyridin-3-yl)thiazol-2-amine], the EC50 lay within 1000 to 10000 nM.
As to `CCCCCCCCOc1ccc(Nc2nc(-c3cccnc3)c(C(=O)OC)s2)cc1` [compound 444, meethyl 2-(4-(octyloxy)pheenylamino)-4-(pyridin-3-yl)thiazol-5-carboxylate], the EC50 lay within 1000 to 10000 nM.
`CCCCCCCCOc1ccc(Nc2nc(-c3ccc(F)c(F)c3)cs2)cn1` [compound 474, N-(4-(3,4-difluorophenyl)thiazol-2-yl)-6-(octyloxy)pyridin-3-amine]: the EC50 was less than 1000 nM.
As for `CCCCCCCOc1ccc(Nc2nc(-c3ccc(-c4ccccn4)s3)cs2)cc1` [compound 399, N-(4-(heptyloxy)phenyl)-4-(5-(pyridin-2-yl)thiophen-2-yl)thiazol-2-amine], the EC50 was less than 1000 nM.
Take `CCCCCCCCOc1ccc(Nc2nc(C3=NC(=O)NC3)cs2)cc1` [compound 331, 4-(2-(4-(octyloxy)phenylamino)thia-zol-4-yl)-1H-imidazol-2(5H)-one]: the EC50 fell in the range of 1000 to 10000 nM.
As for `CCCCCCCCOc1ccc(Nc2nc(-c3ccccc3O)cs2)cc1` [compound 373, 2-(2-(4-(octyloxy)phenylamino)thia-zol-4-yl)phenol], the EC50 was less than 1000 nM.
On to `CCCCCOc1ccc(Nc2nc(CN3CCC(C(=O)OCC)CC3)cs2)cc1F` [compound 289, ethyl 1-((2-(3-fluoro-4-(pentyloxy)phenylamino)thia-zol-4-yl)methyl)piperidine-4-carboxylate], for which the EC50 lay in the range of 1000 to 10000 nM.
On to `CCCCCOc1ccc(Nc2nc(-c3ccc(O)nc3)cs2)cc1C(F)(F)F` [compound 377, 5-(2-(4-(pentyloxy)-3-(trifluoromethyl)phenyl-amino)thiazol-4-yl)pyridin-2-ol], for which the EC50 was less than 1000 nM.
As for `COc1ccc(CNc2nc(-c3ccc(F)cc3)c(C)s2)cc1` [compound 351, N-(4-methoxybenzyl)-4-(4-fluorophenyl)-5-methylthiazol-2-amine], the EC50 was greater than 10000 nM.
For the molecule `CCCCCOc1ccc(Nc2nc(-c3ccc(NC(C)=O)cc3)cs2)cc1C(F)(F)F` [compound 437, N-(4-(2-(3-(trifluoromethyl)-4-(pentyloxy)phenylamino)thia-zol-4-yl)phenyl)acetamide], the EC50 fell in the range of 1000 to 10000 nM.
For `CCCCCCCc1ccc(Nc2nc(Cc3cccnc3)cs2)cc1` [compound 504, N-(4-heptylphenyl)-4-((pyridin-3-yl)methyl)thiazol-2-amine], the EC50 is 1000 to 10000 nM.
Regarding `CCCCCCCCN(C)c1ccc(Nc2nc(Cc3cccc(F)c3)cs2)cc1C(F)(F)F` [compound 518, N^4-(4-(3-fluorobenzyl)thiazol-2-yl)-2-(trifluoromethyl)-N^1-methyl-N^1-octylbenzene-1,4-diamine], the EC50 was 1000 to 10000 nM.
Regarding `CCCCCCCCc1ccc(Nc2nc(-c3ccc(F)nc3)cs2)cc1` [compound 490, 4-(6-fluoropyridin-3-yl)-N-(4-octylphenyl)thiazol-2-amine], the EC50 was less than 1000 nM.
For `CCCCCCCCOc1ccc(Nc2nc(CN3CCCC(C(=O)O)C3)cs2)cc1` (centres unmarked) [compound 323, 1-((2-(4-(octyloxy)phenylamino)thia-zol-4-yl)methyl)piperidine-3-carboxylic acid], the EC50 is 1000 to 10000 nM.
As for `O=C(O)Cc1ccc(-c2csc(Nc3ccc(OC4CCCC4)c(C(F)(F)F)c3)n2)s1` [compound 247, 2-(5-(2-(4-(cyclopentyloxy)-3-(trifluoromethyl)phenyl-amino)-thiazol-4-yl)thiophen-2-yl)acetic acid], the EC50 was less than 1000 nM.

The experiment is the same for the next values; noted with them: Hepatitis C virus, replicon based assay of HCV replication inhibition; Table IV; read-out: Activity.
For `Cc1cccc(CCCCOc2ccc(Nc3nc(-c4cccnc4)cs3)cc2C(F)(F)F)c1` [compound 935, N-(4-(4-m-tolylbutoxy)-3-(trifluoromethyl)phenyl)-4-(pyridin-3-yl)thiazol-2-amine], the EC50 was less than 1000 nM.
As for `c1cc(Nc2nc(-c3cccnc3)cs2)cc(-c2cocn2)c1` [compound 749, N-(3-(oxazol-4-yl)phenyl)-4-(pyridin-3-yl)thiazol-2-amine], the EC50 is greater than 10000 nM.
Take `Nc1sc(Nc2ccc(OCc3ccccc3)cc2)nc1-c1ccc(F)cc1` [compound 858, N^2-(4-(benzyloxy)phenyl)-4-(4-fluorophenyl)thiazole-2,5-diamine]: the EC50 was in the range of 1000 to 10000 nM.
Same read-out and setting: the figure for `Cn1nc(-c2ccccc2)cc1Nc1nc(-c2cccnc2)cs1` [compound 748, 1-methyl-3-phenyl-N-(4-(pyridin-3-yl)thiazol-2-yl)-1H-pyrazol-5-amine] is greater than 10000 nM; for `CCn1c(C)nc2cc(Nc3nc(-c4cccnc4)cs3)ccc21` [compound 750, 1-ethyl-2-methyl-N-(4-(pyridin-3-yl)thiazol-2-yl)-1H-benzo[d]imidazol-5-amine] it is greater than 10000 nM.
`CCCCCCCCOc1ccc(Nc2nc(-c3ccc(CC(=O)O)s3)cs2)cc1C(F)(F)F` [compound 849, 2-(5-(2-(3-(trifluoromethyl)-4-(octyloxy)phenylamino)thiazol-4-yl)thiophen-2-yl)acetic acid]: the EC50 was less than 1000 nM.
The same measure, in the same setting: the figure for `c1cncc(-c2csc(Nc3ccc(OCCCCc4cccs4)cc3)n2)c1` [compound 922, N-(4-(4-(thiophen-2-yl)butoxy)phenyl)-4-(pyridin-3-yl)thiazol-2-amine] is less than 1000 nM; for `Clc1ccc(-c2cc(Nc3nc(-c4cccnc4)cs3)[nH]n2)cc1` [compound 738, 3-(4-chlorophenyl)-N-(4-(pyridin-3-yl)thiazol-2-yl)-1H-pyrazol-5-amine] it is greater than 10000 nM.

The values above are taken from patent publication US8088806B2 (Achillion Pharmaceuticals, Inc., priority 2005, dated 2012).
